According to the NIST ThermoML archive (doi:10.1016/j.fluid.2019.112283):

What was measured:
[1] = 298.15 K; 101.33 kPa; Liquid; Vibrating tube method
[2] = excess molar enthalpy (molar enthalpy of mixing); xn = mol fraction of the nth substance listed; details: 298.15 K, 101 kPa, Liquid, Flow calorimetry

CCCCN [1-butanamine]
Details	mass density [kg/m3]
[1]	732.18

CCCCN [1-butanamine] + CC(=O)N(C)C
[2]
Details	excess molar enthalpy [kcal/mol]
x2 = 0.0498	0.0115
x2 = 0.0992	0.0213
x2 = 0.1518	0.0294
x2 = 0.1985	0.0363
x2 = 0.2512	0.0394
x2 = 0.3004	0.0452
x2 = 0.3493	0.0483
x2 = 0.4015	0.0495
x2 = 0.4508	0.05
x2 = 0.5005	0.0497
x2 = 0.5509	0.048
x2 = 0.6005	0.0466
x2 = 0.7008	0.0382
x2 = 0.7995	0.0287
x2 = 0.8502	0.0225
x2 = 0.9002	0.0153
x2 = 0.9594	0.00645

CCCCN [1-butanamine] + CN(C)C=O
[2]
Details	excess molar enthalpy [kcal/mol]
x2 = 0.051	0.0213
x2 = 0.1009	0.0397
x2 = 0.1496	0.054
x2 = 0.1703	0.059
x2 = 0.2005	0.0667
x2 = 0.2498	0.0765
x2 = 0.3007	0.0841
x2 = 0.3496	0.0891
x2 = 0.4008	0.0935
x2 = 0.4508	0.0939
x2 = 0.5008	0.0918
x2 = 0.5463	0.0894
x2 = 0.6008	0.0848
x2 = 0.6463	0.0779
x2 = 0.7011	0.0691
x2 = 0.7559	0.0586
x2 = 0.8005	0.0497
x2 = 0.8495	0.0378
x2 = 0.9003	0.0253
x2 = 0.9519	0.0131

CCCCCCN [1-hexanamine]
Details	mass density [kg/m3]
[1]	760.16

CCCCCCN [1-hexanamine] + CC(=O)N(C)C
[2]
Details	excess molar enthalpy [kcal/mol]
x2 = 0.0509	0.017
x2 = 0.1005	0.0337
x2 = 0.1507	0.0468
x2 = 0.1994	0.0583
x2 = 0.2488	0.0705
x2 = 0.3018	0.0808
x2 = 0.3484	0.0882
x2 = 0.398	0.0961
x2 = 0.4502	0.1
x2 = 0.5006	0.101
x2 = 0.5493	0.101
x2 = 0.6002	0.0994
x2 = 0.6492	0.0958
x2 = 0.7001	0.0896
x2 = 0.7491	0.0815
x2 = 0.7996	0.0707
x2 = 0.8513	0.0569
x2 = 0.9008	0.0409
x2 = 0.9503	0.0217

CCCCCCN [1-hexanamine] + CN(C)C=O
[2]
Details	excess molar enthalpy [kcal/mol]
x2 = 0.0514	0.0282
x2 = 0.1007	0.0523
x2 = 0.1516	0.076
x2 = 0.2009	0.0942
x2 = 0.2522	0.11
x2 = 0.3006	0.127
x2 = 0.3519	0.14
x2 = 0.4007	0.148
x2 = 0.4518	0.155
x2 = 0.5003	0.158
x2 = 0.5505	0.158
x2 = 0.5982	0.155
x2 = 0.6507	0.147
x2 = 0.7002	0.136
x2 = 0.7503	0.122
x2 = 0.8005	0.105
x2 = 0.8506	0.0846
x2 = 0.8995	0.0588
x2 = 0.9502	0.0308

CC(=O)N(C)C [N,N-dimethylethanamide]
Details	mass density [kg/m3]
[1]	936.14

CCCCNCCCC [dibutylamine]
Details	mass density [kg/m3]
[1]	755.7

CCCCNCCCC [dibutylamine] + CC(=O)N(C)C
[2]
Details	excess molar enthalpy [kcal/mol]
x2 = 0.0499	0.0359
x2 = 0.0976	0.066
x2 = 0.151	0.0968
x2 = 0.1969	0.12
x2 = 0.2472	0.141
x2 = 0.3002	0.161
x2 = 0.3526	0.175
x2 = 0.3983	0.185
x2 = 0.4472	0.193
x2 = 0.5007	0.199
x2 = 0.5507	0.199
x2 = 0.6007	0.197
x2 = 0.6477	0.192
x2 = 0.6968	0.181
x2 = 0.7481	0.167
x2 = 0.8004	0.148
x2 = 0.8512	0.121
x2 = 0.9019	0.0887
x2 = 0.9507	0.0485

CCCCNCCCC [dibutylamine] + CN(C)C=O
[2]
Details	excess molar enthalpy [kcal/mol]
x2 = 0.0491	0.0449
x2 = 0.1014	0.0923
x2 = 0.1488	0.13
x2 = 0.2006	0.163
x2 = 0.2482	0.187
x2 = 0.3006	0.21
x2 = 0.351	0.228
x2 = 0.4021	0.247
x2 = 0.4497	0.259
x2 = 0.4982	0.266
x2 = 0.5505	0.267
x2 = 0.599	0.262
x2 = 0.65	0.253
x2 = 0.6997	0.239
x2 = 0.7506	0.22
x2 = 0.7994	0.195
x2 = 0.8503	0.16
x2 = 0.9	0.117
x2 = 0.9501	0.0645

CN(C)C=O [dimethylformamide]
Details	mass density [kg/m3]
[1]	943.78

CCCNCCC [dipropylamine]
Details	mass density [kg/m3]
[1]	733.37

CCCNCCC [dipropylamine] + CC(=O)N(C)C
[2]
Details	excess molar enthalpy [kcal/mol]
x2 = 0.0597	0.0234
x2 = 0.0996	0.0397
x2 = 0.1496	0.0562
x2 = 0.2011	0.0717
x2 = 0.2497	0.0856
x2 = 0.3009	0.0954
x2 = 0.3462	0.104
x2 = 0.4062	0.114
x2 = 0.4491	0.118
x2 = 0.5035	0.123
x2 = 0.5497	0.124
x2 = 0.5972	0.122
x2 = 0.6495	0.118
x2 = 0.6975	0.113
x2 = 0.7478	0.104
x2 = 0.8009	0.092
x2 = 0.8504	0.076
x2 = 0.8989	0.0571
x2 = 0.9368	0.0373
x2 = 0.9507	0.0301

CCCNCCC [dipropylamine] + CN(C)C=O
[2]
Details	excess molar enthalpy [kcal/mol]
x2 = 0.0358	0.021
x2 = 0.1002	0.0576
x2 = 0.1512	0.0839
x2 = 0.1984	0.107
x2 = 0.2504	0.126
x2 = 0.3016	0.142
x2 = 0.3483	0.157
x2 = 0.4005	0.166
x2 = 0.4495	0.176
x2 = 0.5005	0.179
x2 = 0.5505	0.18
x2 = 0.6012	0.178
x2 = 0.6587	0.169
x2 = 0.6997	0.161
x2 = 0.7518	0.147
x2 = 0.7983	0.13
x2 = 0.8485	0.105
x2 = 0.8991	0.076
x2 = 0.9504	0.0406
